{"source": "ChEMBL document CHEMBL2424639", "about": "“Synthesis and pharmacological activities of some novel 5-chloro-N-(4-(1,5-(disubstituted)-4,5-dihydro-1H-pyrazol-3-yl)phenyl)-2-methoxybenzamide derivatives” (Med Chem Res, 2013)", "key": {"[1]": {"tested_on": "Rattus norvegicus", "test": "In vivo inhibition of PGE2 in albino rat plasma at 50 mg/kg, po administered 1 hr prior to carrageenan challenge measured after 4 hrs by EIA relative to control", "type": "functional"}, "[2]": {"tested_on": "Rattus norvegicus", "test": "In vivo inhibition of PGE2 in albino rat plasma at 25 mg/kg, po administered 1 hr prior to carrageenan challenge measured after 4 hrs by EIA relative to control", "type": "functional"}, "[3]": {"tested_on": "Rattus norvegicus", "test": "Antiinflammatory activity in albino rat assessed as protection against carrageenan-induced paw edema at 50 mg/kg, po administered 1 hr prior to carrageenan challenge measured after 4 hrs relative to control", "type": "functional"}, "[4]": {"tested_on": "Rattus norvegicus", "test": "Antiinflammatory activity in albino rat assessed as protection against carrageenan-induced paw edema at 25 mg/kg, po administered 1 hr prior to carrageenan challenge measured after 4 hrs relative to control", "type": "functional"}, "[5]": {"test": "Acute toxicity in rat", "type": "organism-based", "details": "in vivo"}}}
{"compound": "COc1ccc(C2CC(c3ccc(NC(=O)c4cc(Cl)ccc4OC)cc3)=NN2)cc1", "note": "(centres undefined)", "values": [{"measurement": "inhibition in vivo at 50 mg/kg", "setting": "[1]", "value": 83, "unit": "%"}, {"measurement": "inhibition in vivo at 25 mg/kg", "setting": "[2]", "value": 70.5, "unit": "%"}, {"measurement": "Activity", "setting": "[3]", "value": 89, "unit": "%"}, {"measurement": "Activity", "setting": "[4]", "value": 82.55, "unit": "%"}]}
{"compound": "COc1ccc(Cl)cc1C(=O)Nc1ccc(C2=NNC(c3ccccc3[N+](=O)[O-])C2)cc1", "note": "(centres undefined)", "values": [{"measurement": "inhibition in vivo at 50 mg/kg", "setting": "[1]", "value": 84.5, "unit": "%"}, {"measurement": "inhibition in vivo at 25 mg/kg", "setting": "[2]", "value": 72.3, "unit": "%"}, {"measurement": "Activity", "setting": "[3]", "value": 90.89, "unit": "%"}, {"measurement": "Activity", "setting": "[4]", "value": 88.3, "unit": "%"}]}
{"compound": "COc1ccc(Cl)cc1C(=O)Nc1ccc(C2=NNC(c3ccc([N+](=O)[O-])cc3)C2)cc1", "note": "(centres undefined)", "values": [{"measurement": "inhibition in vivo at 50 mg/kg", "setting": "[1]", "value": 86.3, "unit": "%"}, {"measurement": "inhibition in vivo at 25 mg/kg", "setting": "[2]", "value": 76.3, "unit": "%"}, {"measurement": "Activity", "setting": "[3]", "value": 95.3, "unit": "%"}, {"measurement": "Activity", "setting": "[4]", "value": 91.25, "unit": "%"}]}
{"compound": "COc1ccc(C2CC(c3ccc(NC(=O)c4cc(Cl)ccc4OC)cc3)=NN2C(C)=O)cc1", "note": "(centres undefined)", "values": [{"measurement": "inhibition in vivo at 50 mg/kg", "setting": "[1]", "value": 88.4, "unit": "%"}, {"measurement": "inhibition in vivo at 25 mg/kg", "setting": "[2]", "value": 79.4, "unit": "%"}, {"measurement": "Activity", "setting": "[3]", "value": 90.2, "unit": "%"}, {"measurement": "Activity", "setting": "[4]", "value": 86, "unit": "%"}]}
{"compound": "COc1ccc(Cl)cc1C(=O)Nc1ccc(C2=NN(C(C)=O)C(c3ccccc3[N+](=O)[O-])C2)cc1", "note": "(centres undefined)", "values": [{"measurement": "inhibition in vivo at 50 mg/kg", "setting": "[1]", "value": 87.2, "unit": "%"}, {"measurement": "inhibition in vivo at 25 mg/kg", "setting": "[2]", "value": 77.2, "unit": "%"}, {"measurement": "Activity", "setting": "[3]", "value": 96.15, "unit": "%"}, {"measurement": "Activity", "setting": "[4]", "value": 92.16, "unit": "%"}]}
{"compound": "COc1ccc(Cl)cc1C(=O)Nc1ccc(C2=NN(CN3CCOCC3)C(c3ccc([N+](=O)[O-])cc3)C2)cc1", "note": "(centres undefined)", "values": [{"measurement": "inhibition in vivo at 50 mg/kg", "setting": "[1]", "value": 90.1, "unit": "%"}, {"measurement": "inhibition in vivo at 25 mg/kg", "setting": "[2]", "value": 80.1, "unit": "%"}, {"measurement": "Activity", "setting": "[3]", "value": 97.9, "unit": "%"}, {"measurement": "Activity", "setting": "[4]", "value": 94.13, "unit": "%"}]}
{"compound": "COc1ccc(/C=C/C(=O)c2ccc(NC(=O)c3cc(Cl)ccc3OC)cc2)cc1", "values": [{"measurement": "inhibition in vivo at 50 mg/kg", "setting": "[1]", "value": 79.2, "unit": "%"}, {"measurement": "inhibition in vivo at 25 mg/kg", "setting": "[2]", "value": 68.1, "unit": "%"}, {"measurement": "LD50", "setting": "[5]", "value": 2230, "unit": "mg/kg"}, {"measurement": "Activity", "setting": "[3]", "value": 93.1, "unit": "%"}, {"measurement": "Activity", "setting": "[4]", "value": 79, "unit": "%"}]}
{"compound": "COc1ccc(Cl)cc1C(=O)Nc1ccc(C(=O)/C=C/c2ccccc2[N+](=O)[O-])cc1", "values": [{"measurement": "inhibition in vivo at 50 mg/kg", "setting": "[1]", "value": 80.4, "unit": "%"}, {"measurement": "inhibition in vivo at 25 mg/kg", "setting": "[2]", "value": 69.1, "unit": "%"}, {"measurement": "LD50", "setting": "[5]", "value": 2400, "unit": "mg/kg"}, {"measurement": "Activity", "setting": "[3]", "value": 85.85, "unit": "%"}, {"measurement": "Activity", "setting": "[4]", "value": 81.8, "unit": "%"}]}
{"compound": "COc1ccc(Cl)cc1C(=O)Nc1ccc(C(=O)/C=C/c2ccc([N+](=O)[O-])cc2)cc1", "values": [{"measurement": "LD50", "setting": "[5]", "value": 1830, "unit": "mg/kg"}]}
{"compound": "COc1ccc(C2CC(c3ccc(NC(=O)c4cc(Cl)ccc4OC)cc3)=NN2C)cc1", "note": "(centres undefined)", "values": [{"measurement": "inhibition in vivo at 50 mg/kg", "setting": "[1]", "value": 81.8, "unit": "%"}, {"measurement": "inhibition in vivo at 25 mg/kg", "setting": "[2]", "value": 69.6, "unit": "%"}, {"measurement": "LD50", "setting": "[5]", "value": 2390, "unit": "mg/kg"}, {"measurement": "Activity", "setting": "[3]", "value": 93.15, "unit": "%"}, {"measurement": "Activity", "setting": "[4]", "value": 88.1, "unit": "%"}]}
{"compound": "COc1ccc(Cl)cc1C(=O)Nc1ccc(C2=NN(C)C(c3ccccc3[N+](=O)[O-])C2)cc1", "note": "(centres undefined)", "values": [{"measurement": "inhibition in vivo at 50 mg/kg", "setting": "[1]", "value": 91.2, "unit": "%"}, {"measurement": "inhibition in vivo at 25 mg/kg", "setting": "[2]", "value": 83.8, "unit": "%"}, {"measurement": "LD50", "setting": "[5]", "value": 2350, "unit": "mg/kg"}, {"measurement": "Activity", "setting": "[3]", "value": 99.5, "unit": "%"}, {"measurement": "Activity", "setting": "[4]", "value": 96.45, "unit": "%"}]}
{"compound": "COc1ccc(Cl)cc1C(=O)Nc1ccc(C2=NN(C)C(c3ccc([N+](=O)[O-])cc3)C2)cc1", "note": "(centres undefined)", "values": [{"measurement": "inhibition in vivo at 50 mg/kg", "setting": "[1]", "value": 83.2, "unit": "%"}, {"measurement": "inhibition in vivo at 25 mg/kg", "setting": "[2]", "value": 71.3, "unit": "%"}, {"measurement": "LD50", "setting": "[5]", "value": 2540, "unit": "mg/kg"}, {"measurement": "Activity", "setting": "[3]", "value": 97.4, "unit": "%"}, {"measurement": "Activity", "setting": "[4]", "value": 93, "unit": "%"}]}
{"compound": "COc1ccc(C2CC(c3ccc(NC(=O)c4cc(Cl)ccc4OC)cc3)=NN2c2ccccc2)cc1", "note": "(centres undefined)", "values": [{"measurement": "inhibition in vivo at 50 mg/kg", "setting": "[1]", "value": 90.2, "unit": "%"}, {"measurement": "inhibition in vivo at 25 mg/kg", "setting": "[2]", "value": 82.3, "unit": "%"}, {"measurement": "LD50", "setting": "[5]", "value": 2390, "unit": "mg/kg"}, {"measurement": "Activity", "setting": "[3]", "value": 98, "unit": "%"}, {"measurement": "Activity", "setting": "[4]", "value": 94.82, "unit": "%"}]}
{"compound": "COc1ccc(Cl)cc1C(=O)Nc1ccc(C2=NN(c3ccccc3)C(c3ccccc3[N+](=O)[O-])C2)cc1", "note": "(centres undefined)", "values": [{"measurement": "inhibition in vivo at 50 mg/kg", "setting": "[1]", "value": 84.3, "unit": "%"}, {"measurement": "inhibition in vivo at 25 mg/kg", "setting": "[2]", "value": 73.3, "unit": "%"}, {"measurement": "LD50", "setting": "[5]", "value": 2390, "unit": "mg/kg"}, {"measurement": "Activity", "setting": "[3]", "value": 88.4, "unit": "%"}, {"measurement": "Activity", "setting": "[4]", "value": 80.18, "unit": "%"}]}
{"compound": "COc1ccc(Cl)cc1C(=O)Nc1ccc(C2=NN(c3ccccc3)C(c3ccc([N+](=O)[O-])cc3)C2)cc1", "note": "(centres undefined)", "values": [{"measurement": "inhibition in vivo at 50 mg/kg", "setting": "[1]", "value": 85.3, "unit": "%"}, {"measurement": "inhibition in vivo at 25 mg/kg", "setting": "[2]", "value": 75.3, "unit": "%"}, {"measurement": "LD50", "setting": "[5]", "value": 2380, "unit": "mg/kg"}, {"measurement": "Activity", "setting": "[3]", "value": 94.1, "unit": "%"}, {"measurement": "Activity", "setting": "[4]", "value": 90.85, "unit": "%"}]}
{"compound": "C[C@]12C=CC(=O)C=C1CC[C@@H]1[C@@H]2[C@@H](O)C[C@@]2(C)[C@H]1CC[C@]2(O)C(=O)CO", "note": "[PREDNISOLONE]", "values": [{"measurement": "inhibition in vivo at 50 mg/kg", "setting": "[1]", "value": 92.1, "unit": "%"}, {"measurement": "inhibition in vivo at 25 mg/kg", "setting": "[2]", "value": 78.1, "unit": "%"}, {"measurement": "Activity", "setting": "[3]", "value": 92.1, "unit": "%"}, {"measurement": "Activity", "setting": "[4]", "value": 80.4, "unit": "%"}]}
